pIC50: −log10 of the molar value.
Legend:
[1] = target: over expressed HSD17β13 in HEK293S cells (Homo sapiens (Human), UniProt Q7Z5P4); test: In Vitro 17bHSD13 Cell Assay; type: cell-based; conditions: HEK293S cells over expressing HSD17β13; estradiol to estrone conversion, 18 h, LC-MS/MS; read-out: 17bHSD1713 Cell assay IC50
Experimental: In Vitro 17bHSD13 Cell Assay
Inhibition of 17bHSD13 was measured in a cell-based assay with over expressed HSD17β13 in HEK293S cells, measuring estradiol to estrone conversion by LCMS/MS.
Samples were analyzed using LC-MS/MS.
(§1) SCIEX LC-MS/MS system: Sample was injected with CTC analytical injector, SHIMATZU LC pumps LC20 and analysed on the SCIEX API 5000 LCMSMS system with the following settings. […] The mobile phases consist of A (water with 0.2% formic acid) and B (acetonitrile with 0.2% formic acid). The LC gradient profile is as follows: 50% B during 0 to 0.5 min, a linear increase to 100% B during 0.5 to 1 min, hold at 100% B during 1 to 1.6 min then back to 50% B from 1.6 to 2 min. […] Detection was performed on a API 5000 LC/MS/MS system with a triple quadrupole mass spectrometer, a TURBO V ion source, in multiple reaction monitoring (MRM) mode at positive polarity with APCI probe. […] The dwell times were 100 ms for each transition and a depolarization and collision energy of 100 and 40, respectively. Data from MS signals was using area under curve (AUC). Ratio=Estrone/(Estrone+Estradiol)
(§2) […] […] was used for curve fitting and calculation of IC50 values.
(§3) Compound effect was calculated with the formula below;
(§4) where X represents the effect in the presence of test compound, min is DMSO and max is the maximum inhibition of enzyme using a known inhibitor as control.

[2] = target: recombinant 17bHSD13 (N2-K300) (Homo sapiens (Human), UniProt Q7Z5P4); test: In Vitro 17bHSD13 Enzyme Assay; type: biochemical; conditions: 80 nM 17bHSD13, 0.5 mM NAD, 20 μM Estradiol, 2.5 h; estradiol to estrone by LC-MS/MS
Experimental: In Vitro 17bHSD13 Enzyme Assay
The enzyme reaction was initiated by addition, using CERTUS-FLEX dispenser (GYGER), of 20 μl of substrate solution containing NAD (SIGMA, N1511) and Estradiol (SIGMA, E8875). […] Final assay conditions were 80 nM of 17bHSD13, 0.5 mM of NAD, 20 μM Estradiol and various concentrations of compound in buffer (5 mM EDTA (TEKNOVA E0306), 0.01% DDM (AFFYMETRIX D310) in 50 mM Tris-Cl, pH 7.4).
as §1, with “analyzed” for “analysed”
as §2, §3, §4

[3] = target: over expressed HSD17β9 in HEK293S cells (Homo sapiens (Human), UniProt Q92781); test: In Vitro 17bHSD9 Cell Assay; type: cell-based; conditions: HEK293S cells over expressing HSD17β9; retinol to retinal conversion, 18 h, LC-MS/MS; read-out: 17bHSD9 Cell assay IC50
Experimental: In Vitro 17bHSD9 Cell Assay
Inhibition of 17bHSD9 was measured in a cell-based assay with over expressed HSD17β9 in HEK293S cells, measuring retinol to retinal conversion by LCMS/MS.
Cells were plated in 384 well plates (GREINER CELL culture plate 384w black/clear Poly-D-Lysine) at 10 K c/w in 30 μl of culture media (DMEM with GLUTAMAX plus 10% FBS). […] After 18 h of cell culturing for 20 μl of media was transferred using BRAVO dispensing robot (AGILENT) to a GREINER PP 384 well plate (781280) and 40 μl of 50% acetonitrile was added. Samples were analyzed using LC-MS/MS.
SCIEX LC-MS/MS system: Sample was injected with CTC analytical injector, SHIMATZU LC pumps LC20 and analysed on the SCIEX API 5000 LCMSMS system with the following settings. Samples were chromatographed on a WATERS, symmetry, C8, 3.5 μm, 2.1×50 mm) column at constant flow rate of 0.5 mL/min. The mobile phases consists of A (water with 0.2% formic acid) and B (acetonitrile with 0.2% formic acid). The LC gradient profile is as follows: 50% B during 0 to 0.1 min, a linear increase to 100% B during 0.1 to 0.8 min, hold at 100% B during 0.8 to 1.5 min then back to 50% B from 1.5 to 1.6 min and hold during run time. The run time was 2 min with retention times of approximately 1.54 and 1.62 min for Retinol and Retinal, respectively. Detection was performed on a API 5000 LC/MS/MS system with a triple quadrupole mass spectrometer, a TURBO V ion source, in multiple reaction monitoring (MRM) mode at positive polarity with ESI probe. The MRM pairs were m/z 269.3 to m/z 93.0 and m/z 285.2 to 161.0. for Retinol and Retinal, respectively. The dwell times were 100 ms for each transition and a depolarization and collision energy of 50 and 25, respectively. Data from MS signals was using area under curve (AUC). Ratio=Retinal/(Retinal+Retinol).
as §2, §3, §4

[4] = target: recombinant 17bHSD4 (M1-N311) (Homo sapiens (Human), UniProt P51659); test: In Vitro 17bHSD4 Enzyme Assay; type: biochemical; conditions: 40 nM 17bHSD4, 0.125 mM NAD, 15 μM Estradiol, 1.5 h; NADH fluorescence; read-out: 17HSD17b4 Enzyme assay IC50
Experimental: In Vitro 17bHSD4 Enzyme Assay
10 concentration of compounds (0.2 μl) in DMSO was added to GREINER FLUOTRAC 200 384 well plate (781076) using ECHO dispensing (BECKMAN COULTER). 80 nl of 10 mM Estradiol (SIGMA, E8875) was added using Echo dispensing. The enzyme reaction was initiated by addition, using MULTIDROP COMBI dispensing (THERMO FISHER), of 40 μl of a mix containing recombinant 17bHSD4 (M1-N311) and NAD. Final assay conditions were 40 nM of 17bHSD4, 0.125 mM of NAD, 15 μM Estradiol and various concentrations of compound in buffer (5 mM EDTA (TEKNOVA E0306), 0.01% DDM (AFFYMETRIX D310) in 50 mM Tris-Cl, pH 7.4). After each addition plates were centrifuged for 1 min at 150×g (EPPENDORF, 5810R, A-4-81). NADH formation was measured by fluorescence intensity (FI) (Ex360/Em460) at time zero (to) and at 1.5 h (t1) in a PHERASTAR FSX (BMG LABTECH). FI for each sample was calculated as FI at t1 minus FI at t0.
as §2, §3, §4

over expressed HSD17β9 in HEK293S cells, sequence (Q92781 whole entry): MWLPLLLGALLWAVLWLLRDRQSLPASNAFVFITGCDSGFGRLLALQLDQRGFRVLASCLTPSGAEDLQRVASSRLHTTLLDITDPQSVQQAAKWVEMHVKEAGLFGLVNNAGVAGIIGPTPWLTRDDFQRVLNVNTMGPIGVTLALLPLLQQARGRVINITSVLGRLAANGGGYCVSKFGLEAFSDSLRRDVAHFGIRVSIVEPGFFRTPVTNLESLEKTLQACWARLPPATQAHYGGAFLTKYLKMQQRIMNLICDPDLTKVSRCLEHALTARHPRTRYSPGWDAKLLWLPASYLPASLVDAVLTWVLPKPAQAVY
over expressed HSD17β13 in HEK293S cells, sequence (Q7Z5P4 20-300): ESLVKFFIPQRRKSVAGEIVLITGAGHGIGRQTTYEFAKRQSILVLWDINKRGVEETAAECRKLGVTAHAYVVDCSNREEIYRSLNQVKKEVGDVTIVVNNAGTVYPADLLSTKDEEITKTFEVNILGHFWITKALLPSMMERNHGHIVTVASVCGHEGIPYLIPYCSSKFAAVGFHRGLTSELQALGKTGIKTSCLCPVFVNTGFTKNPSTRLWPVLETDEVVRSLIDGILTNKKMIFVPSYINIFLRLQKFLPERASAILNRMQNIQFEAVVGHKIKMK
recombinant 17bHSD4 (M1-N311), sequence (P51659 1-311): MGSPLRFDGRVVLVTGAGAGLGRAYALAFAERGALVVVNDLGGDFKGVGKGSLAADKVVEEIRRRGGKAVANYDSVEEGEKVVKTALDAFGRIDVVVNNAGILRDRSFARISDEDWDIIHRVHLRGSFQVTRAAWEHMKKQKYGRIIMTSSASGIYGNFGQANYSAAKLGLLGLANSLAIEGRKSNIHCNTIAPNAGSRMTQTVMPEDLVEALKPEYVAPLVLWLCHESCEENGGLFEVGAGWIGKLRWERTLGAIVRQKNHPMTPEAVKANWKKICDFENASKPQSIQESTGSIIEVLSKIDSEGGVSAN
recombinant 17bHSD13 (N2-K300), sequence (Q7Z5P4 2-300): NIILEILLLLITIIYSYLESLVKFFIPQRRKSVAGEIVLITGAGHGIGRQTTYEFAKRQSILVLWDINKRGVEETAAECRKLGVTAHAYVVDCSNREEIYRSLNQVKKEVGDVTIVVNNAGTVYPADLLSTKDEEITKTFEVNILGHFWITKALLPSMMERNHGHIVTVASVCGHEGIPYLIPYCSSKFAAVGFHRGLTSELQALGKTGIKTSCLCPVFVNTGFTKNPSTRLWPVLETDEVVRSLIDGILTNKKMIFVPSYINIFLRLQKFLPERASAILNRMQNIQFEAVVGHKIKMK

Compound | pIC50 [1] | pIC50 [2] | pIC50 [3] | pIC50 [4]
C[C@@H]1CN(C(=O)c2noc(-c3cc(O)c(F)c(F)c3)n2)C[C@H](C)O1 [Example 116, (5-(3,4-Difluoro-5-hydroxyphenyl)-1,2,4-oxadiazol-3-yl)((2R,6S)-2,6-dimethylmorpholino)methanone] | 7.22 | 6.93 | < 4.30 | < 4.30
N#Cc1c(C(=O)N2CCN(c3nc4ccccc4o3)CC2)noc1-c1cc(F)c(F)c(O)c1F [Example 23, 3-(4-(Benzo[d]oxazol-2-yl)piperazine-1-carbonyl)-5-(2,4,5-trifluoro-3-hydroxyphenyl)isoxazole-4-carbonitrile] | 6.03 | 6.85 | < 4.30 | 4.47
COc1ccc(OC2CCN(C(=O)c3noc(-c4cc(F)c(F)c(O)c4F)n3)CC2)nc1 [Example 68, (4-((5-Methoxypyridin-2-yl)oxy)piperidin-1-yl)(5-(2,4,5-trifluoro-3-hydroxyphenyl)-1,2,4-oxadiazol-3-yl)methanone] | 6.10 | 7.36 | 4.52 | 4.58
O=C(c1noc(-c2cc(F)c(F)c(O)c2F)n1)N1CCc2ccccc2C1 [Example 64, (3,4-Dihydroisoquinolin-2(1H)-yl)(5-(2,4,5-trifluoro-3-hydroxyphenyl)-1,2,4-oxadiazol-3-yl)methanone] | 6.57 | 7.32 | 4.95 | 5.25
COc1ccccc1N1CCN(C(=O)c2noc(-c3cc(F)c(F)c(O)c3F)n2)CC1 [Example 84, (4-(2-Methoxyphenyl)piperazin-1-yl)(5-(2,4,5-trifluoro-3-hydroxyphenyl)-1,2,4-oxadiazol-3-yl)methanone] | 6.52 | 6.70 | < 4.30 | 4.70
O=C(c1noc(-c2cc(F)c(F)c(O)c2F)n1)N1CCOC2(CCOCC2)C1 [Example 53, (1,9-Dioxa-4-azaspiro[5.5]undecan-4-yl)(5-(2,4,5-trifluoro-3-hydroxyphenyl)-1,2,4-oxadiazol-3-yl)methanone] | 5.25 | 5.56 | < 4.30 | < 4.30
O=C(c1noc(-c2cc(F)c(F)c(O)c2F)n1)N1CCO[C@@H](CF)C1 [Example 49, (R)-(2-(Fluoromethyl)morpholino)(5-(2,4,5-trifluoro-3-hydroxyphenyl)-1,2,4-oxadiazol-3-yl)methanone] | 6.27 | 5.78 | < 4.30 | < 4.30
O=C(c1noc(-c2cc(F)c(F)c(O)c2F)n1)N1CCSCC1 [Example 40, Thiomorpholino(5-(2,4,5-trifluoro-3-hydroxyphenyl)-1,2,4-oxadiazol-3-yl)methanone] | 5.84 | 6.15 | < 4.30 | < 4.30
C[C@@H]1CCN(C(=O)c2noc(-c3cc(F)c(F)c(O)c3F)n2)CCO1 [Example 51, (R)-(7-Methyl-1,4-oxazepan-4-yl)(5-(2,4,5-trifluoro-3-hydroxyphenyl)-1,2,4-oxadiazol-3-yl)methanone] | 5.57 | 5.77 | < 4.30 | < 4.30
CC[C@H]1CN(C(=O)c2noc(-c3cc(F)c(F)c(O)c3F)n2)CC(=O)N1 [Example 34, (S)-6-Ethyl-4-(5-(2,4,5-trifluoro-3-hydroxyphenyl)-1,2,4-oxadiazole-3-carbonyl)piperazin-2-one] | < 4.30 | 6.24 | < 4.30 | < 4.30
C[C@@H]1CN(C(=O)c2nc(-c3cc(F)c(F)c(O)c3F)no2)C[C@H](C)O1 [Example 110, ((2R,6S)-2,6-Dimethylmorpholino)(3-(2,4,5-trifluoro-3-hydroxyphenyl)-1,2,4-oxadiazol-5-yl)methanone] | 6.62 | 6.00 | < 4.30 | < 4.30
O=C(c1noc(-c2cc(F)c(F)c(O)c2F)n1)N1CCN(c2nc3ccccc3o2)CC1 [Example 72, (4-(Benzo[d]oxazol-2-yl)piperazin-1-yl)(5-(2,4,5-trifluoro-3-hydroxyphenyl)-1,2,4-oxadiazol-3-yl)methanone] | 5.95 | 7.21 | < 4.30 | 4.72
N#Cc1cccc(C2CN(C(=O)c3noc(-c4cc(F)c(F)c(O)c4F)n3)CCN2)c1 (centres unmarked) [Example 42, 3-(4-(5-(2,4,5-Trifluoro-3-hydroxyphenyl)-1,2,4-oxadiazole-3-carbonyl)piperazin-2-yl)benzonitrile] | 5.00 | 6.04 | < 4.30 | < 4.30
O=C(c1noc(-c2cc(F)c(F)c(O)c2F)n1)N1CCCCC1 [Example 44, Piperidin-1-yl(5-(2,4,5-trifluoro-3-hydroxyphenyl)-1,2,4-oxadiazol-3-yl)methanone] | 6.72 | 6.36 | 4.95 | 4.42
